According to patent US7812022B2 (GlaxoSmithKline LLC, priority 2004, dated 2010):
pIC50: −log10 of the molar value.

What was measured:
ErbB2 or EGFR = target: T1, ErbB2 or EGFR; experiment: ErbB family substrate phosphorylation enzyme assay (HTRF), Method A or Method B; format: biochemical
T1 construct: enzymes purified from a baculovirus expression system; Reagent production was conducted essentially as described in Brignola, P. S., et al, (2002) J. Biol. Chem. 277(2): 1576-1585
Outline: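 Baculovirus-expressed EGFR or ErbB2 (0.8 or 10 nM in enzyme mix) phosphorylates biotinylated Peptide C with 20 µM ATP and 0.8 µM peptide (substrate-mix levels), MnCl2, pH 7.5. Reaction ran 90 min at 20 °C with EDTA stop and HTRF anti-phosphotyrosine read. Method A: enzyme added last; Method B: 1 h enzyme–compound preincubation.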

[1] = system: BT474 and HN5 tumor cell lines; experiment: Methylene blue growth inhibition assay (cellular Method A); format: cell-based, Human; details: Homo sapiens, BT-474, 72 h, 3 days, read-out: Activity (Method): growth inhibition IC50 class
Outline: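 Colo205, BT474 and HN5 cells in DMEM/10% FBS (BT474 10,000, HN5 3,000 cells/well) treated next day with compound in DMEM, 0.3% final DMSO, for 3 days at 37° C. Biomass stained with methylene blue, solubilized, read at OD 620; IC50 interpolated by nonlinear regression from % inhibition versus vehicle.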

Colo205 tumor cell lines = experiment: Methylene blue growth inhibition assay (cellular Method A), Colo205; format: cell-based, Human; details: Homo sapiens, COLO 205, 72 h, 3 days, read-out: Activity (Method): growth inhibition IC50 class
Protocol: Human breast (BT474) and head and neck (HN5) were cultured in low glucose DMEM (Life Technologies 12320-032) containing 10% fetal bovine serum (FBS). Human colon tumor cells (Colo205) were cultured in DMEM (Invitrogen, 10564) containing 10% FBS. The SV40 transformed human mammary epithelial cell line HB4a was transfected with either human H-ras cDNA (HB4a r4.2) or the human c-ErbB2 cDNA (HB4a c5.2). The HB4a clones were cultured in RPMI containing 10% FBS, insulin (5 g/mL), hydrocortisone (5 g/mL), supplemented with the selection agent hygromycin B (50 g/mL). All lines were grown in a humidified incubator at 37° C. in 95% air, 5% CO2. Cells were harvested using trypsin/EDTA, counted using a haemocytometer, and plated in 100 microliters of the appropriate media, at the following densities, in a 96-well tissue culture plate (Falcon 3075): BT474 10,000 cells/well, HN5 3,000 cells/well. The next day, compounds were diluted in DMEM containing […] gentamicin, at twice the final required concentration, from 10 mM stock solutions in DMSO. 100 microliters/well of these dilutions were added to the 100 microliters of media currently on the cell plates. Medium containing 0.6% DMSO was added to control wells. Compounds diluted in DMEM were added to all cell lines. The final concentration of DMSO in all wells was 0.3%. Cells were returned to the incubator (37° C., 10% CO2) for 3 days. Medium was then removed by aspiration. Cell biomass was estimated by staining cells with 90 microliters per well methylene blue (Sigma M9140, 0.5% in 1:1 ethanol:water), and incubation at rt for at least 30 minutes. Stain was removed, and the plates rinsed by immersion in deionized water and air-dried. To release stain from the cells 100 microliters of solubilization solution was added (1% N-lauroyl sarcosine, Sodium salt, Sigma L5125, in PBS), and plates were shaken gently for about 30 minutes. Optical density at 620 nm was measured on a microplate reader. Percent inhibition of cell growth was calculated relative to vehicle treated control wells. Concentration of compound that inhibits 50% of control cell growth (IC50) was interpolated using nonlinear regression (Levenberg-Marquardt) and the equation, y=Vmax*(1−(x/(K+x)))+Y2, where “K” was equal to the IC50. Method B: Celltiter Glo® Growth Inhibition Assays

[2] = Method A: substrate mix added first, reaction started with enzyme mix
[3] = Method B: enzyme mix pre-incubated with compound 1 hour at 20° C., started with substrate mix

Structure (SMILES)	pIC50 [1]	pIC50 (Colo205 tumor cell lines)	Activity (Method): pIC50 class against ErbB2 or EGFR (ErbB2 or EGFR; [2])	Activity (Method): pIC50 class against ErbB2 or EGFR (ErbB2 or EGFR; [3])
CC(c1cccc(Nc2nccc(-c3c(-c4cccc(NC(=O)c5c(F)cccc5F)c4)nn4ccccc34)n2)c1)S(C)(=O)=O (racemic) [Example 117, 2,6-Difluoro-N-(3-{3-[2-({3-[1-(methylsulfonyl)ethyl]-phenyl}amino)-4-pyrimidinyl]pyrazolo[1,5-a]pyridin-2-yl}phenyl)benzamide]	> 7.00	6.00 to 7.00	++ (A) (at least one pIC50 measurement greater than 6 against either ErbB2 or EGFR but no measurement greater than pIC50 of 7)	–
O=C(Nc1cccc(-c2nn3ccccc3c2-c2ccnc(Nc3ccc4c(c3)OCCO4)n2)c1)Nc1ccccc1Cl [Example 2, N-(2-Chlorophenyl)-N-(3-{3-[2-(2,3-dihydro-1,4-benzodioxin-6-ylamino)-4-pyrimidinyl]pyrazolo[1,5-a]pyridin-2-yl}phenyl)urea]	< 6.00	< 6.00	++ (A) (at least one pIC50 measurement greater than 6 against either ErbB2 or EGFR but no measurement greater than pIC50 of 7)	–
O=C(Nc1cccc(-c2nn3ccccc3c2-c2ccnc(Nc3ccc4c(c3)OCCO4)n2)c1)c1ccccc1 [Example 4, N-(3-{3-[2-(2,3-Dihydro-benzo[1,4]dioxin-6-ylamino)-pyrimidin-4-yl]-pyrazolo[1,5-]pyridin-2-yl}-phenyl)-benzamide]	> 7.00	6.00 to 7.00	+++ (A) (at least one pIC50 measurement of greater than 7 against either ErbB2 or EGFR)	–
COc1cccc(C(=O)Nc2cccc(-c3nn4ccccc4c3-c3ccnc(Nc4ccc5c(c4)OCCO5)n3)c2)c1 [Example 5, N-(3-{3-[2-(2,3-Dihydro-benzo[1,4]dioxin-6-ylamino)-pyrimidin-4-yl]-pyrazolo[1,5]-pyridin-2-yl}-phenyl)-3-methoxy-benzamide]	6.00 to 7.00	< 6.00	+++ (A) (at least one pIC50 measurement of greater than 7 against either ErbB2 or EGFR)	–
O=C(Nc1cccc(-c2nn3ccccc3c2-c2ccnc(Nc3cccc(F)c3)n2)c1)c1cc(F)ccc1Cl [Example 11, 2-Chloro-5-fluoro-N-(3-{3-[2-(3-fluoro-phenylamino)-pyrimidin-4-yl]-pyrazolo[1,5-a]pyridin-2-yl}-phenyl)-benzamide]	6.00 to 7.00	< 6.00	–	+++ (B) (at least one pIC50 measurement of greater than 7 against either ErbB2 or EGFR)
O=C(Nc1cccc(-c2nn3ccccc3c2-c2ccnc(Nc3cccc(F)c3)n2)c1)c1cccs1 [Example 25, N-[3-(3-{2-[(3-fluorophenyl)amino]-4-pyrimidinyl}pyrazolo[1,5-a]pyridin-2-yl)phenyl]-2-thiophenecarboxamide]	6.00 to 7.00	< 6.00	–	+++ (B) (at least one pIC50 measurement of greater than 7 against either ErbB2 or EGFR)
CN(C)CCCNc1ccc(Nc2nccc(-c3c(-c4cccc(NC(=O)c5c(F)cccc5F)c4)nn4ccccc34)n2)cc1F [Example 41, N-[3-(3-{2-[(4-{[3-(dimethylamino)propyl]amino}-3-fluorophenyl)amino]-4-pyrimidinyl}pyrazolo[1,5-a]pyridin-2-yl)phenyl]-2,6-difluorobenzamide]	> 7.00	6.00 to 7.00	–	+++ (B) (at least one pIC50 measurement of greater than 7 against either ErbB2 or EGFR)
CN1CCN(CCCNc2ccc(Nc3nccc(-c4c(-c5cccc(NC(=O)c6c(F)cccc6F)c5)nn5ccccc45)n3)cc2F)CC1 [Example 42, 2,6-Difluoro-N-[3-(3-{2-[(3-fluoro-4-{[3-(4-methyl-1-piperazinyl)propyl]amino}phenyl)amino]-4-pyrimidinyl}pyrazolo[1,5-a]pyridin-2-yl)phenyl]benzamide]	> 7.00	< 6.00	–	+++ (B) (at least one pIC50 measurement of greater than 7 against either ErbB2 or EGFR)
NC(=O)c1ccc(Nc2nccc(-c3c(-c4cccc(NC(=O)c5c(F)cccc5F)c4)nn4ccccc34)n2)cc1 [Example 104, N-{3-[3-(2-{[4-(Aminocarbonyl)phenyl]amino}-4-pyrimidinyl)pyrazolo[1,5-a]pyridin-2-yl]phenyl}-2,6-difluorobenzamide-ethane (1:1)]	> 7.00	6.00 to 7.00	–	–

Second part, led by results:

pIC50 [1]	pIC50 (Colo205 tumor cell lines)	Structure (SMILES)	Activity (Method): pIC50 class against ErbB2 or EGFR (ErbB2 or EGFR; [2])	Activity (Method): pIC50 class against ErbB2 or EGFR (ErbB2 or EGFR; [3])
< 6.00	< 6.00	O=C(Nc1ccccc1)Nc1cccc(-c2nn3ccccc3c2-c2ccnc(Nc3ccc4c(c3)OCCO4)n2)c1 [Example 1, 1-(3-{3-[2-(2,3-Dihydro-benzo[1,4]dioxin-6-ylamino)-pyrimidin-4-yl]-pyrazolo[1,5-]pyridin-2-yl}-phenyl)-3-phenyl-urea]	++ (A) (at least one pIC50 measurement greater than 6 against either ErbB2 or EGFR but no measurement greater than pIC50 of 7)	–
> 7.00	6.00 to 7.00	COc1cccc(Nc2nccc(-c3c(-c4cccc(NC(=O)c5c(F)cccc5F)c4)nn4ccccc34)n2)c1 [Example 28, 2,6-Difluoro-N-{3-[3-(2-{[3-(methyloxy)phenyl]-amino}-4-pyrimidinyl)pyrazolo[1,5-a]pyridin-2-yl]phenyl}benzamide]	–	+++ (B) (at least one pIC50 measurement of greater than 7 against either ErbB2 or EGFR)
> 7.00	< 6.00	COc1ccc(Nc2nccc(-c3c(-c4cccc(NC(=O)c5c(F)cccc5F)c4)nn4ccccc34)n2)cc1F [Example 29, 2,6-Difluoro-N-{3-[3-(2-{[3-fluoro-4-(methyloxy)-phenyl]amino}-4-pyrimidinyl)pyrazolo[1,5-a]pyridin-2-yl]phenyl}benzamide]	++ (A) (at least one pIC50 measurement greater than 6 against either ErbB2 or EGFR but no measurement greater than pIC50 of 7)	–
> 7.00	6.00 to 7.00	O=C(Nc1cccc(-c2nn3ccccc3c2-c2ccnc(Nc3ccc4nn[nH]c4c3)n2)c1)c1c(F)cccc1F [Example 31, N-(3-{3-[2-(1H-1,2,3-benzotriazol-5-ylamino)-4-pyrimidinyl]pyrazolo[1,5-a]pyridin-2-yl}phenyl)-2,6-difluorobenzamide]	–	+++ (B) (at least one pIC50 measurement of greater than 7 against either ErbB2 or EGFR)
6.00 to 7.00	< 6.00	O=C(Nc1cccc(-c2nn3ccccc3c2-c2ccnc(Nc3ccccc3)n2)c1)c1cc(F)ccc1F [Example 43, 2,5-Difluoro-N-(3-{3-[2-(phenylamino)-4-pyrimidinyl]pyrazolo[1,5-a]pyridin-2-yl}phenyl)benzamide]	+++ (A) (at least one pIC50 measurement of greater than 7 against either ErbB2 or EGFR)	–
6.00 to 7.00	< 6.00	O=C(Nc1cccc(-c2nn3ccccc3c2-c2ccnc(Nc3ccc(-c4cc[nH]n4)cc3)n2)c1)c1c(F)cccc1F [Example 101, 2,6-Difluoro-N-{3-[3-(2-{[4-(1H-pyrazol-3-yl)phenyl]amino}-4-pyrimidinyl)pyrazolo[1,5-a]pyridin-2-yl]phenyl}benzamide]	–	–
> 7.00	6.00 to 7.00	CN(C)C1Cc2ccc(Nc3nccc(-c4c(-c5cccc(NC(=O)c6c(F)cccc6F)c5)nn5ccccc45)n3)cc2C1 (stereo not drawn) [Example 176, N-{3-[3-(2-{[2-(Dimethylamino)-2,3-dihydro-1H-inden-5-yl]amino}-4-pyrimidinyl)pyrazolo[1,5-a]pyridin-2-yl]phenyl}-2,6-difluorobenzamide]	–	–
